In patent US20170168041A1, “Polymers And Oligomers With Aggregation-Induced Emission Characteristics For Imaging And Image-Guided Therapy” (National University of Singapore, priority 2014, published 2017):
One block for each molecule: values may come before it.

How the values were obtained:
[1] = 1O2 quantum yield measurement with ABDA, Rose Bengal standard; type: physicochemical; settings: for 1O2 quantum yield: in water, white light, relative to Rose Bengal; for degradation rate of ABDA: white light irradiation, ABDA absorbance at 378 nm
Method: The ^1O2-sensitive indicator, 9,10-anthracenediyl-bis(methylene) dimalonic acid (ABDA), was used as the ^1O2-trapping agent, and Rose Bengal (RB) was used as the standard photosensitizer. In these experiments, 10 μL of ABDA solution ([…]) was added to 1 mL of sample solution, and white light (400-800 nm) with a power density of 0.25 W cm^−2 was employed as the irradiation source. The absorbance of ABDA at 378 nm was recorded at different irradiation time to obtain the decay rate of the photosensitizing process. The ^1O2 quantum yield of the PS in water (ΦPS) was calculated using the following formula: […]
Where KPS and KRB are the decomposition rate constants of ABDA by the PSs and RB, respectively. APS and ARB represent the light absorbed by the PSs and RB, respectively, which are determined by integration of the optical absorption bands in the wavelength range 400-800 nm. ΦRB is the ^1O2 quantum yield of RB, and ΦRB=0.75 in water.
To assess capabilities of PPDC, TPPDC, and TPDC in ^1O2 generation, a commercial ^1O2 probe ABDA was used as an indicator and Rose Bengal (RB) was used as the standard photosensitizer (^1O2 quantum yield ORB=0.75 in water). In the presence of PSs or RB under irradiation with white light, the absorbance of the ABDA solution at 378 nm, decreases with prolonged irradiation time, indicating the degradation of ABDA by ^1O2 generated by PSs. […] Thus, the ^1O2 quantum yield of PPDC, TPPDC and TPDC was calculated to be 0.89, 0.32 and 0.28, respectively. These findings agree well with the prediction based on eq. (1).

[2] = in water; cited from earlier work
[3] = ROS generation of AIE residue of prodrug, ABDA absorbance; type: physicochemical; settings: 12 min light irradiation, 0.25 W cm-2
Text: The ROS generation of the AIE residue was studied by measuring the absorption spectra of the mixture of TPECB-Pt-D5-cRGD and 9,10-anthracenediyl-bis(methylene)dimalonic acid (ABDA) in DMSO/PBS (v/v=1/199) upon light irradiation. It should be noted that the absorbance of TPECB-Pt-D5-cRGD is low and will not disturb the absorbance change of ABDA. As depicted in FIG. 23D, the absorption peaks at 358 nm, 378 nm and 400 nm attributed to the anthracene moiety in ABDA decreased gradually upon light irradiation. This is due to the fact that ABDA can efficiently trap ROS by fast reaction with the anthracene moiety.

293T cells = assay: MTT anti-proliferative assay; type: cell-based; settings: in dark or with light irradiation
Method: (§1) Subsequently, the anti-proliferative properties of TPECB-Pt-D5-cRGD towards MDA-MB-231 cells, U87-MG cells, MCF-7 cells and 293T cells were evaluated by MTT assays. The MDA-MB-231 cells are cisplatin resistant while U87-MG cells are cisplatin-sensitive. […] It should be noted that the cytotoxicity of cisplatin to both cells was not affected by the light irradiation.

MCF-7 cells = assay: MTT anti-proliferative assay; type: cell-based; settings: in dark or with light irradiation
Method: as §1

MDA-MB-231 cells = assay: Combination index (C.I.) analysis from dose-effect profiles; type: cell-based; settings: drug effect levels from 75% to 25%
Method: To confirm the drug synergy in cRGD-TPE-Pt-DOX, the combination index (C.I.) was calculated. The C.I. derived from the dose-effect profiles was plotted against drug effect level, which provided quantitative information of the combination drug effect, where C.I. values lower than, equal to, or higher than 1 denote synergism, additivity, or antagonism, respectively.
The combination therapy of cisplatin and DOX towards MDA-MB-231 cells was evaluated by the combination index (C.I.) analysis. The C.I. was calculated as follows: C.I.=D1/Df1+D2/Df2+D1D2/Df1Df2. Where. Df1 is the dose of Drug-1 required to produce x percent effect alone and D1 is the dose of Drug-1 required to produce the same x percent effect in combination with Drug-2; similarly, Df2 is the dose of Drug-2 required to produce x percent effect alone and D2 is the dose of Drug-2 required to produce the same x percent effect in combination with Drug-1. Theoretically, C.I. is the ratio of the combination dose to the sum of the single-drug doses at an isoeffective level. Consequently, C.I. values <1 indicate synergism, values >1 show antagonism, and values=1 indicate additive effects.

[4] = system: MDA-MB-231, MCF-7 and 293T cells; assay: Annexin V-FITC/PI apoptosis staining; type: cell-based; settings: 6 h incubation; only MDA-MB-231 strong apoptotic fluorescence, MCF-7 and 293T negligible
Method: The toxicity of cRGD-TPE-Pt-DOX to different cells was also studied using MDA-MB-231, MCF-7 and 293T cells as examples. After incubation with cRGD-TPE-Pt-DOX for 6 h, the cells were stained with Annexin V-FITC/Propidium Iodide (PI), which are commonly used fluorescent probes to distinguish viable cells from apoptosis ones. […] This should be due to the integrin mediated endocytosis, which leads to selective cellular uptake of the prodrug cRGD-TPE-Pt-DOX.

U87-MG cells = assay: MTT anti-proliferative assay; type: cell-based; settings: not affected by light irradiation
Method: as §1

- degradation rate of ABDA [1]: 0.0032
SMILES: COc1ccc(C(=C(c2ccccc2)c2ccc(-c3ccc(C(C)=C(C#N)C#N)cc3)cc2)c2ccc(OC)cc2)cc1 [PPDC]
- 1O2 quantum yield [1]: 0.89

SMILES: O=C([O-])c1c(Cl)c(Cl)c(Cl)c(Cl)c1-c1c2cc(I)c(=O)c(I)c-2oc2c(I)c([O-])c(I)cc12.[Na+].[Na+] [Rose Bengal]
- 1O2 quantum yield of standard [2]: 0.75

- degradation rate of ABDA [1]: 0.0013
SMILES: COc1ccc(C(=C(c2ccccc2)c2ccc(C(C)=C(C#N)C#N)cc2)c2ccc(OC)cc2)cc1 [TPDC]
- 1O2 quantum yield [1]: 0.28

SMILES: COc1ccc(C(=C(c2ccccc2)c2ccc(C(/C=C/c3ccc(OCCCNC(=O)CCC(=O)[O][Pt-2]([NH3+])([NH3+])([Cl])([Cl])[O]C(=O)CCC(=O)N[C@@H](CC(=O)O)C(=O)N[C@@H](CC(=O)O)C(=O)N[C@@H](CC(=O)O)C(=O)N[C@@H](CC(=O)O)C(=O)N[C@@H](CC(=O)O)C(=O)NCCCC[C@@H]4NC(=O)[C@@H](Cc5ccccc5)NC(=O)[C@H](CC(=O)O)NC(=O)CNC(=O)[C@H](CCCNC(=N)N)NC4=O)cc3)=C(C#N)C#N)cc2)c2ccc(OC)cc2)cc1 [TPECB-Pt-D5-cRGD]
- ABDA absorption at 400 nm, % of original value [3]: 24.1%
- cytotoxicity (293T cells): minimum cytotoxicity
- cytotoxicity (MCF-7 cells): minimum cytotoxicity

- degradation rate of ABDA [1]: 0.0018
SMILES: COc1ccc(C(=C(c2ccccc2)c2ccc(C(=C(C#N)C#N)c3ccccc3)cc2)c2ccc(OC)cc2)cc1 [TPPDC]
- 1O2 quantum yield [1]: 0.32

SMILES: COc1cccc2c1C(=O)c1c(O)c3c(c(O)c1C2=O)C(OC1CC(NC(=O)CCC(=O)[O][Pt]([NH2])([NH2])([Cl])([Cl])[O]C(=O)CCC(=O)NCc2cn(Cc4ccc(/C(=C(\c5ccccc5)c5ccc(Cn6cc(C[C@@H]7NC(=O)[C@@H](Cc8ccccc8)NC(=O)[C@H](CC(=O)O)NC(=O)CNC(=O)[C@H](CCCNC(=N)N)NC7=O)nn6)cc5)c5ccccc5)cc4)nn2)C(O)C(C)O1)CC(O)(C(=O)CO)C3 (stereo partly shown) [cRGD-TPE-Pt-DOX]
- combination index (C.I.) result (MDA-MB-231 cells): synergistic effect
- selective apoptosis [4]: selectively kill integrin overexpressed cancer cells

SMILES: N.N.[Cl][Pt][Cl] [cisplatin]
- IC50 (U87-MG cells): 5.4 µM
